pIC50: −log10 of the molar value. Entries after “also recorded” stand apart in the source; their conditions may differ.
Key:
Format in all cases: cell-based
SCC-25 cells = assay: Cellular proliferation assay (CellTiter-Glo, day 5); settings: read-out: The compound of Formula I IC50, compound of Formula I alone
Procedure: (§1) The cell lines used in the study were obtained from ATCC (CAL 27 #CRL-2095, SCC-15 #CRL-1623, SCC-25 #CRL-1628, SCC-4 #CRL-1624 and SCC-9 #CRL-1629). The cell line, CAL 27 was cultured in DMEM (Gib co #). SCC-4, SCC-15, SCC-25, SCC-9 cell lines was cultured in a 1:1 mixture of DMEM and Ham's F12 medium containing 1.2 g/L sodium bicarbonate, 2.5 mM L-glutamine, 15 mM HEPES and 0.5 mM sodium pyruvate supplemented with 400 ng/ml hydrocortisone, 90%; fetal bovine serum, 10% (Hyclone #SH-30071.03) and Penicillin/Streptomycin (Thermo Fisher #15070-063). The cells were maintained at 37° C./5% CO2. Cells were washed in ice cold PBS (Thermo Fisher Scientific #10010-023) and lysed in RIPA Lysis and Extraction Buffer (Thermo Fisher Scientific #89900) supplemented with Halt Phosphatase and Protease Inhibitor (Thermo Fisher Scientific #78445). The membrane was blocked for non-specific proteins by Bovine Serum Albumin BSA (Cell Signaling Tech #9998). Antibodies for immunoblotting were as follows: phospho-p44/42 ERK1/2 (Cell Signaling Tech #4370), ERK2 antibody (Santa Cruz #sc-1647), anti-mouse IgG HRP-linked antibody (Cell Signaling Tech #7076), and anti-rabbit IgG HRP-linked antibody (Cell Signaling Tech #7074).
(§2) […] HPV-negative head and neck squamous cancer cell lines, CAL 27, SCC-4, SCC-9, SCC-15 and SCC-25 were split onto 96 well plates.

SCC-9 cells = assay: as above; settings: Homo sapiens, read-out: The compound of Formula I IC50, compound of Formula I alone
Procedure: as §1, §2

SCC-15 cells = assay: as above; settings: Homo sapiens, read-out: The compound of Formula I IC50, compound of Formula I alone
Procedure: as §1, §2

CAL 27 cells = assay: as above; settings: Homo sapiens, read-out: The compound of Formula I IC50, compound of Formula I alone
Procedure: as §1, §2

ERK1/2 phosphorylation = assay: Western blotting of phosphorylated ERK1/2 in CAL 27 cells; settings: HPV-negative CAL 27 cells; 4 hours of treatment; immunoblot, bands normalized by total ERK
Procedure: as §1, with “The membrane was blocked for non-specific proteins by Bovine Serum Albumin BSA (Cell Signaling Tech #9998). Antibodies for immunoblotting were as follows: phospho-p44/42 ERK1/2 (Cell Signaling Tech #4370), ERK2 antibody (Santa Cruz #sc-1647), anti-mouse IgG HRP-linked antibody (Cell Signaling Tech #7076), and anti-rabbit IgG HRP-linked antibody (Cell Signaling Tech #7074).” left out
Western blotting: Cells were lysed on ice for 10 minutes with Thermo Fisher RIPA lysis buffer with protease and phosphatase inhibitors. […] The supernatant was transferred to pre-chilled microcentrifuge tube and protein concentration of the lysate was measured using BCA method. […]
After 4 hours of treatment, cells were lysed and immunoblotted for phosphorylated ERK1/2. […] The phosphorylated ERK1/2 bands were quantified by using Bio-Rad Image Lab software and normalized by total ERK.

Q: `COCOC[C@H]1C[C@H]2COc3c(Sc4cnc(N5CCC6(CC5)CO[C@@H](C)[C@H]6N)c(CO)n4)ccnc3N2C1` [The compound of Formula I] was tested. Which pIC50 (SCC-25 cells) did it give?
A: 5.09

Q: What about the pIC50 (SCC-9 cells) of the same compound?
A: 6.79

Q: What about the pIC50 (SCC-15 cells) of the same compound?
A: 5.85

Q: And the pIC50 (CAL 27 cells)?
A: 6.95

Q: What about the “inhibition of ERK1/2 phosphorylation relative to DMSO treated control cells” value (ERK1/2 phosphorylation) of the same compound?
A: approximately 50%; also recorded: about 50%

— patent publication US20240050441A1, “COMBINATION THERAPIES FOR THE TREATMENT OF CANCER” (Erasca, Inc., priority 2020, published 2024)
